Assay results as given in ChEMBL document CHEMBL4507266, “Data for DCP probe BAY-784” (2021).

Assays:
[1] = target: D(1A) dopamine receptor (Homo sapiens, UniProt P21728); experiment: GPCRScan assay: inhibition of D1; parameters: radioligand conc. used [nm] 0.6 – 1.3, parental cells HEKT
[2] = organism: Homo sapiens; experiment: Inhibition of Tumor Necrosis Factor (TNF), Non-Selective at 10 µM in the Eurofins-Panlabs radioligand binding assay (Eurofins_assay_286510); details: Compound concentration 10.0 uM
[3] = target: Matrix metalloproteinase-9 (Homo sapiens) (UniProt P14780); experiment: Inhibition of Peptidase, Matrix Metalloproteinase-9 (MMP-9) at 10 µM in the Eurofins-Panlabs enzyme assay (Eurofins_assay_114910); parameters: substrate with concentration; details: Compound concentration 10.0 uM
Chain of Matrix metalloproteinase-9 (Homo sapiens) (P14780 whole entry): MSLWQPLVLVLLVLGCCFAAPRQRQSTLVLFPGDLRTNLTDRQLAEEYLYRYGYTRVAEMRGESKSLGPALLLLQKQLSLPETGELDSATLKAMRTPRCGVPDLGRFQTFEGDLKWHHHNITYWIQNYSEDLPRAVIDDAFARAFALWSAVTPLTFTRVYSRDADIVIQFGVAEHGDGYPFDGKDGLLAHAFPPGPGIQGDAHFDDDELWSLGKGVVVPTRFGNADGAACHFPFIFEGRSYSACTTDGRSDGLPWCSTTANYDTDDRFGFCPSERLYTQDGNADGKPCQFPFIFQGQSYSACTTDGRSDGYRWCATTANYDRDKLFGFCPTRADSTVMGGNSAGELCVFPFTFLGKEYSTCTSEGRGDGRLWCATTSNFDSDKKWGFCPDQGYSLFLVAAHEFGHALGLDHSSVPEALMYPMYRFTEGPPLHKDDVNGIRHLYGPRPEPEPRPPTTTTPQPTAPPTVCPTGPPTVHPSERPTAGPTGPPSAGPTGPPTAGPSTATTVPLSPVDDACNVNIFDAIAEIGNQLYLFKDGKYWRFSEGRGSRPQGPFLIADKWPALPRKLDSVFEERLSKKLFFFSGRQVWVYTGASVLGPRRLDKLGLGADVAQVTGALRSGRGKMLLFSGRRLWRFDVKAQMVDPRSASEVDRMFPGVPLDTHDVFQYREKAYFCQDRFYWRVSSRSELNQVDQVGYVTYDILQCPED

[4] = target: L-type calcium channel, benzothiazepine site (Cav1.2 alpha-1C) (Homo sapiens, UniProt Q13936); experiment: Inhibition of Calcium Channel L-Type, Benzothiazepine at 10 µM in the Eurofins-Panlabs radioligand binding assay (Eurofins_assay_214510); parameters: ligand concentration 2 nM, non-specific ligand with concentration 10 µM Diltiazem, incubation time 3h, incubation temperature 4 °C; details: male, Wistar, rat, rat whole brain preparation, probe [3H] Diltiazem, 2 nM; compound concentration 10 uM; target entry is the homologue from another species
[5] = target: T1, Alpha-2A adrenergic receptor (Homo sapiens) (UniProt P08913); experiment: Adrenergic alpha2A Eurofins-Panlabs radioligand binding assay; parameters: ligand concentration 1 nM, non-specific ligand with concentration 10 µM WB-4101, incubation time 60 min, incubation temperature 25 °C; details: Compound concentration 10.0 uM
T1 sequence (whole entry): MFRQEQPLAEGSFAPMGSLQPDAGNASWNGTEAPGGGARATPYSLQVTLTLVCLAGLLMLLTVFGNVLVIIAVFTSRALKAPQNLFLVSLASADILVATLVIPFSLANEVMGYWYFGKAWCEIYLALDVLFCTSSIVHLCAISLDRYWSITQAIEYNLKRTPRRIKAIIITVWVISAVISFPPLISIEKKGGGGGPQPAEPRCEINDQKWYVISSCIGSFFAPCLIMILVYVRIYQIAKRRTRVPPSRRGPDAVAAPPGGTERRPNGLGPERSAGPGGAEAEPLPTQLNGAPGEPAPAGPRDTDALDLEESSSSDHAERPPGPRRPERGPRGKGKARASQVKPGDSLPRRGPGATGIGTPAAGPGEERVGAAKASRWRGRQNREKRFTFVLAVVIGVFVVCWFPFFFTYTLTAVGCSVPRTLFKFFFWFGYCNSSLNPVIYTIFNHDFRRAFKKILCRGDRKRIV

[6] = target: T2, Muscarinic acetylcholine receptor M5 (Homo sapiens) (UniProt P08912); experiment: Inhibition of Muscarinic M5 at 10 µM in the Eurofins-Panlabs radioligand binding assay (Eurofins_assay_253010); parameters: ligand concentration 0.8 nM; details: Compound concentration 10.0 uM
T2 sequence (whole entry): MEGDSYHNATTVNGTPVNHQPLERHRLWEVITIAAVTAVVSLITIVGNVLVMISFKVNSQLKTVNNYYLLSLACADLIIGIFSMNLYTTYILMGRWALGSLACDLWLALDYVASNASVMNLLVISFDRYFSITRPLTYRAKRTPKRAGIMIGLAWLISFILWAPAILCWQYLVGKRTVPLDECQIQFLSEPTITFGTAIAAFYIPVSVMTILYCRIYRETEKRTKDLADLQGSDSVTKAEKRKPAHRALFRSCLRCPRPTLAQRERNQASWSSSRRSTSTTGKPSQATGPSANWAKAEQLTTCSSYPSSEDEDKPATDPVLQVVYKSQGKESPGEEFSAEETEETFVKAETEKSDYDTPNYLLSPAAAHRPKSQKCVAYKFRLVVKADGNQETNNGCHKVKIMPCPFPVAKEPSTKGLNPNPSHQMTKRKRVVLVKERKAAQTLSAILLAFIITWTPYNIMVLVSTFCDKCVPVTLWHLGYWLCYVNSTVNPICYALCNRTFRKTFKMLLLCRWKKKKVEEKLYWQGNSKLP

[7] = target: Muscarinic acetylcholine receptor M3 (Homo sapiens) (UniProt P20309); details: Compound concentration 10.0 uM
Chain of Muscarinic acetylcholine receptor M3 (Homo sapiens) (P20309 whole entry, looked up): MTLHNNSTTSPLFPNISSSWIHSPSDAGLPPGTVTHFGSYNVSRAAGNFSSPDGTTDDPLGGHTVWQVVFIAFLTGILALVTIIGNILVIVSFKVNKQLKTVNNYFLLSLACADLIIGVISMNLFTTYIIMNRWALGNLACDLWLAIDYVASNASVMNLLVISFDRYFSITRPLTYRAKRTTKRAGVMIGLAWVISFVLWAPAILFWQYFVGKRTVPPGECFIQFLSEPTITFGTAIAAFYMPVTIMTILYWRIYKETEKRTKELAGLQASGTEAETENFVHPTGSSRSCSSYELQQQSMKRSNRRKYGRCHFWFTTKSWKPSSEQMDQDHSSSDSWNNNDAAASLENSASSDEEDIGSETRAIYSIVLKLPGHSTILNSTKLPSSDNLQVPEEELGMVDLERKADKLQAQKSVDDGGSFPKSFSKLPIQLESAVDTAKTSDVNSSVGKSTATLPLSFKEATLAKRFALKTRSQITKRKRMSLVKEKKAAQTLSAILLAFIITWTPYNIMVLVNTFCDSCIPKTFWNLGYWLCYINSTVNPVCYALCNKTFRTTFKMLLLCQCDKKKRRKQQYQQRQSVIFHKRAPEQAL

[8] = target: Melanocortin receptor 4 (Homo sapiens) (UniProt P32245); experiment: Inhibition of Melanocortin MC4 at 10 µM in the Eurofins-Panlabs radioligand binding assay (Eurofins_assay_251350); parameters: ligand concentration 0.02 nM; details: Compound concentration 10.0 uM
Chain of Melanocortin receptor 4 (Homo sapiens) (P32245 whole entry): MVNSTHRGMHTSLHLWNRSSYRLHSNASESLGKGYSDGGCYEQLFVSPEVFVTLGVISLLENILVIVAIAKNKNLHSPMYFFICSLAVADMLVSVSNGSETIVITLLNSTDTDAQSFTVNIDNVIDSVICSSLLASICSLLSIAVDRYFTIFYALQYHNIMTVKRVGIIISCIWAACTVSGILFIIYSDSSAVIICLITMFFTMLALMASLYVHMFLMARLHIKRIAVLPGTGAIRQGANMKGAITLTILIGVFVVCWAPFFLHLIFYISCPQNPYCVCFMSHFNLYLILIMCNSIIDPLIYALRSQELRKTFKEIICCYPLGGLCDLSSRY

[9] = target: CYP2C9 (Homo sapiens, UniProt P11712); experiment: CYP450, 2C9 Eurofins-Panlabs enzyme assay; details: compound concentration 10 uM
[10] = target: Sodium-dependent noradrenaline transporter (Homo sapiens) (UniProt P23975); details: Compound concentration 10.0 uM
Chain of Sodium-dependent noradrenaline transporter (Homo sapiens) (P23975 whole entry): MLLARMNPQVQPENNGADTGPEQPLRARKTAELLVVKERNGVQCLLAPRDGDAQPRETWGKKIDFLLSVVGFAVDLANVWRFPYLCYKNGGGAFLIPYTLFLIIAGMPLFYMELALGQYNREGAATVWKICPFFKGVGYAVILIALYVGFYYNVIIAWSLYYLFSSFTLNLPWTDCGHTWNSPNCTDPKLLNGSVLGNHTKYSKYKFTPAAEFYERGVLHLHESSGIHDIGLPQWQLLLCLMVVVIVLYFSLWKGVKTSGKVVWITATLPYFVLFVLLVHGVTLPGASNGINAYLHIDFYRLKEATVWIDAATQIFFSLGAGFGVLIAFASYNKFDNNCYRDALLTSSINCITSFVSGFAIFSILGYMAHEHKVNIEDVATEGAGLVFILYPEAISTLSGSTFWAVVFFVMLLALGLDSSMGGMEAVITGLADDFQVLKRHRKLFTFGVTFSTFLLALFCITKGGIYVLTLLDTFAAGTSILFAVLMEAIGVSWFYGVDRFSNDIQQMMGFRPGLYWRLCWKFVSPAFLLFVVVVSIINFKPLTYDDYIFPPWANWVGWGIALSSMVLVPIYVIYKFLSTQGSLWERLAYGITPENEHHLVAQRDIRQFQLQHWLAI

[11] = organism: Rattus norvegicus; details: Compound concentration 10.0 uM
[12] = tested on: Bacteria; experiment: Inhibition of Beta-Lactamase at 10 µM in the Eurofins-Panlabs enzyme assay (Eurofins_assay_126000); assay type: protein-complex assay; parameters: substrate with concentration; details: Compound concentration 10.0 uM
[13] = target: D(3) dopamine receptor (Homo sapiens) (UniProt P35462); details: Compound concentration 10.0 uM
[14] = target: 5-hydroxytryptamine receptor 1A (Homo sapiens) (UniProt P08908); details: Compound concentration 10.0 uM
[15] = target: Insulin receptor (Homo sapiens) (UniProt P06213); details: Rattus norvegicus; Compound concentration 10.0 uM
Chain of Insulin receptor (Homo sapiens) (P06213 28-758 limits assumed): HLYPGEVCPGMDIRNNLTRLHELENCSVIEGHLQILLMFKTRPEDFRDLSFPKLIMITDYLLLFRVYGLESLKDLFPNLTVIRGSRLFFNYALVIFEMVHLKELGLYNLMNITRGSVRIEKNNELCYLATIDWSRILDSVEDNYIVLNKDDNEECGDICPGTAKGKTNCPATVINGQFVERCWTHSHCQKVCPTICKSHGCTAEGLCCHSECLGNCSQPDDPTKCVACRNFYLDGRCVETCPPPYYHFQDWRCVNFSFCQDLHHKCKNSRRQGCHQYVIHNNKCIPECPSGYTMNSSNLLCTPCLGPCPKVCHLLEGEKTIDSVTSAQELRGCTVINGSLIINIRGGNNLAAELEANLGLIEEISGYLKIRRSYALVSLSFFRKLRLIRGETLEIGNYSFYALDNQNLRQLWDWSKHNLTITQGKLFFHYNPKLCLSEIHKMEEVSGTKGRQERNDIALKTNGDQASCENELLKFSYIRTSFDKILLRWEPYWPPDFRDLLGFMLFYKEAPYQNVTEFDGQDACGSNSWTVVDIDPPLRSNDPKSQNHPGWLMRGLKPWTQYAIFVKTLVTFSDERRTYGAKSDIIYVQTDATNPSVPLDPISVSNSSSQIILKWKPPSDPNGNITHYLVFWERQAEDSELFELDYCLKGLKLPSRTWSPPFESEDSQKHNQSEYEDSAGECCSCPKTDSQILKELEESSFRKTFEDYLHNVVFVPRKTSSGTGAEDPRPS
Chain of Insulin receptor (Homo sapiens) (P06213 763-1382 limits assumed): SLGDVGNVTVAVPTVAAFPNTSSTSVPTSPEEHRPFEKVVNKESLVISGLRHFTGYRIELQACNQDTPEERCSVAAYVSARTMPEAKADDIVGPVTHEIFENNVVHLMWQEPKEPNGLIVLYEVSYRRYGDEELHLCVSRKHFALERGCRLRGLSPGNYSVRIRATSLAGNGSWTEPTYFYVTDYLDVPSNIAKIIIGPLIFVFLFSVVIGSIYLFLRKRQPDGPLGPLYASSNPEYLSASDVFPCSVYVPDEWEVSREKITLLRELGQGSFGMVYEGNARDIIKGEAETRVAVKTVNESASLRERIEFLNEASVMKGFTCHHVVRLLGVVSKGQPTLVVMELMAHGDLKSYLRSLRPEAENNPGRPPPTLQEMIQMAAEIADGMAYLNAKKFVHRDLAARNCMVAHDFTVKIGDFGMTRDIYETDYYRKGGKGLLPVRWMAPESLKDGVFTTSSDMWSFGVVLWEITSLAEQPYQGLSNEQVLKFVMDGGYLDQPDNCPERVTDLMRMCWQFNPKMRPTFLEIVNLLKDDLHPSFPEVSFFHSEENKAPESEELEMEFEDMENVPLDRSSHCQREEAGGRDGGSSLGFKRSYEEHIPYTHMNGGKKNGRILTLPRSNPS

[16] = target: T3, Alpha-2C adrenergic receptor (Homo sapiens) (UniProt P18825); experiment: Adrenergic alpha2C Eurofins-Panlabs radioligand binding assay; parameters: ligand concentration 1 nM, non-specific ligand with concentration 10 µM WB-4101, incubation time 60 min, incubation temperature 25 °C; details: Compound concentration 10.0 uM
T3 sequence (whole entry): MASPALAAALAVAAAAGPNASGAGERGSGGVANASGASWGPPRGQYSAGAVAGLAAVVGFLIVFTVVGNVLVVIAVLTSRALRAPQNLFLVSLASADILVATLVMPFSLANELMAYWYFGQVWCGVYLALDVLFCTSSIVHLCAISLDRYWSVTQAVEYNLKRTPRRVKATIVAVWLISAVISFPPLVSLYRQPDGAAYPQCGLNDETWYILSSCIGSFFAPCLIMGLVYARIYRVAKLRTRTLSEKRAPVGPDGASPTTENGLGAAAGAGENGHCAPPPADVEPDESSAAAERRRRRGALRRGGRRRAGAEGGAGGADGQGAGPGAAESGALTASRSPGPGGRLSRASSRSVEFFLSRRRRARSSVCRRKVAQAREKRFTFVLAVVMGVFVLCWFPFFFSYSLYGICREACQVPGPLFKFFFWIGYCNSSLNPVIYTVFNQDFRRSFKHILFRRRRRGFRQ

[17] = target: Melanocortin receptor 5 (Homo sapiens) (UniProt P33032); experiment: Inhibition of Melanocortin MC5 at 10 µM in the Eurofins-Panlabs radioligand binding assay (Eurofins_assay_251400); parameters: ligand concentration 0.035 nM; details: Compound concentration 10.0 uM
Chain of Melanocortin receptor 5 (Homo sapiens) (P33032 whole entry): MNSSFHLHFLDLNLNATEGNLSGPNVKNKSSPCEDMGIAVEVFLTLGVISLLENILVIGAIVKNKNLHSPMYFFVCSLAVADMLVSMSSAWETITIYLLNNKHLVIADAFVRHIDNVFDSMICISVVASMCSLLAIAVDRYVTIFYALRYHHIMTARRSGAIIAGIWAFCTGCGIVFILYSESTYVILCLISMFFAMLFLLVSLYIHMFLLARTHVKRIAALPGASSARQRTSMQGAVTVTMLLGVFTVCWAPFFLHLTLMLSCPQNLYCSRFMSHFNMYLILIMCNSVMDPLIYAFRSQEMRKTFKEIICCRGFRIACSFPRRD

[18] = Inhibition of Atrial Natriuretic Factor (ANF) at 10 µM in the Eurofins-Panlabs radioligand binding assay (Eurofins_assay_211000); details: Cavia porcellus; Compound concentration 10 uM; Assay protocol publication PMID: 2408776; Detection method Radioligand Binding; Incubation temperature 4 °C; Incubation time 60 min; Ligand Bmax 0.013 pM/ mg protein; Ligand Kd 0.14 nM; Ligand [125I] ANF (rat); Ligand concentration 0.016 nM; Ligand specific binding 78 %; Non-specific ligand with concentration 0.1 µM ANF (rat); Reference compound ANF (rat); Source of …
[19] = target: Adenosine receptor A3 (Homo sapiens) (UniProt P0DMS8); details: Compound concentration 10.0 uM
Chain of Adenosine receptor A3 (Homo sapiens) (P0DMS8 whole entry): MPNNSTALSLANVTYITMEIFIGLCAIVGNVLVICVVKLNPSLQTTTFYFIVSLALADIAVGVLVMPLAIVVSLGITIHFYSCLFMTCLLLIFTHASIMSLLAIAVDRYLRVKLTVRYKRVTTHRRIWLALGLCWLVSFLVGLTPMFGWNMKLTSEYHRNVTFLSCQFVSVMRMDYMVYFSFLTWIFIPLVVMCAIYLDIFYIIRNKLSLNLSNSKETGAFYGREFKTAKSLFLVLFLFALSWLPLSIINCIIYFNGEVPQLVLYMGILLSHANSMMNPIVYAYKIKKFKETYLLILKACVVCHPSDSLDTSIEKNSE

[20] = target: Glutamate receptor 2 (Homo sapiens) (UniProt P42262); details: Rattus norvegicus; Compound concentration 10.0 uM

Chain of D(1A) dopamine receptor (P21728 whole entry): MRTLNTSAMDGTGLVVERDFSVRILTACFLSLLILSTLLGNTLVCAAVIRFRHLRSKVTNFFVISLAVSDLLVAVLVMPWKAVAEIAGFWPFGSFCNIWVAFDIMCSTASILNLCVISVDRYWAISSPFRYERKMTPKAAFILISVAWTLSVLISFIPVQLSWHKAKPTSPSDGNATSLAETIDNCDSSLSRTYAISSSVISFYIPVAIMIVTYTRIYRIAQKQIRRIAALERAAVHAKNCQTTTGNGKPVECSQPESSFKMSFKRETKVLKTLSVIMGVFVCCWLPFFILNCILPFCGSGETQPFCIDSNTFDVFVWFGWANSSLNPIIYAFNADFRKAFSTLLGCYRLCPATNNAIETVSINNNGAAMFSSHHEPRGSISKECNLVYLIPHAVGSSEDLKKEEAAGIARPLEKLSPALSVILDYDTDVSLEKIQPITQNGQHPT

O=C(NCc1ncc(C(F)(F)F)cc1Cl)c1ccc2c(c1)C1(CCS(=O)(=O)CC1)[C@@H](C1CC1)N2S(=O)(=O)c1ccc(F)cc1 [BAY-786]
Ki [1]: 10 µM

O=C(NCc1ncc(C(F)(F)F)cc1Cl)c1ccc2c(c1)C1(CCS(=O)(=O)CC1)[C@H](C1CC1)N2S(=O)(=O)c1ccc(F)cc1 [BAY-784]
inhibition [2]: 22%
inhibition [3]: 3%
inhibition at 3 h, 10 µM [4]: 29% (not active)
inhibition [5]: -1%
inhibition [6]: 0%
inhibition [7]: 1%
inhibition [8]: 12%
inhibition at 10 µM [9]: 32% (not active)
inhibition [10]: 14%
inhibition [11]: 7.97%
inhibition [12]: 4%
inhibition [13]: 17%
inhibition [14]: 0%
inhibition [15]: -1%
inhibition [16]: 3%
inhibition [17]: 27%
inhibition at 10 µM [18]: 2% (not active)
inhibition [19]: 9%
inhibition [20]: 2%
